Source: patent publication US20050234103A1, “Crystalline forms of rabeprazole sodium” (priority 2002, published 2005)

Conditions: as compared to prazoles such as panto prazole sodium and omeprazole sodium

COCCCOc1ccnc(C[S+]([O-])c2nc3ccccc3[n-]2)c1C.[Na+] (stereo not shown) [Form X, 2-[[[4-(3-methoxypropoxy)-3-methyl-2-pyridinyl]-methyl]sulfinyl]-1H-benzimidazole sodium]
chemical stability such as thermo stability and light stability: better chemical stability
